Measured values reported in ChEMBL document CHEMBL1133777, “De novo design of a novel oxazolidinone analogue as a potent and selective alpha1A adrenergic receptor antagonist with high oral bioavailability” (J Med Chem, 2000).
Each block holds one compound with its values, some of them ahead of it.

Experiments:
[1] = target: T1, 5-hydroxytryptamine receptor 1A (Mus musculus, UniProt Q64264); assay: Binding affinity towards 5-hydroxytryptamine 1A receptor receptor, using [3H]5-HT as radioligand.
T1 sequence (Q64264 whole entry): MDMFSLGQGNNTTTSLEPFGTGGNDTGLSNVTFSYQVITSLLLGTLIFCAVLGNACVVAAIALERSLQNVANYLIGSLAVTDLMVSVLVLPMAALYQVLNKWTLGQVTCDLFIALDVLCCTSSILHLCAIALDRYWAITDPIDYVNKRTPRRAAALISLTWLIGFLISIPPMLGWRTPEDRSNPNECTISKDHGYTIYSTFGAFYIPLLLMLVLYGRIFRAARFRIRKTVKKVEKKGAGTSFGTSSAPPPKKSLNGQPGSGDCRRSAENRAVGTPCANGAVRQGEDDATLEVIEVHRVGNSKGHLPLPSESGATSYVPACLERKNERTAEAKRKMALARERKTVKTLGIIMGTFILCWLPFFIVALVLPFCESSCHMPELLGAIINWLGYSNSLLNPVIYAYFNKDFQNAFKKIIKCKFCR

[2] = target: 5-hydroxytryptamine receptor 1B (Homo sapiens, UniProt P28222); assay: Binding affinity towards 5-hydroxytryptamine 1B receptor using [3H]5-HT as radioligand.
Sequence of 5-hydroxytryptamine receptor 1B (P28222 whole entry): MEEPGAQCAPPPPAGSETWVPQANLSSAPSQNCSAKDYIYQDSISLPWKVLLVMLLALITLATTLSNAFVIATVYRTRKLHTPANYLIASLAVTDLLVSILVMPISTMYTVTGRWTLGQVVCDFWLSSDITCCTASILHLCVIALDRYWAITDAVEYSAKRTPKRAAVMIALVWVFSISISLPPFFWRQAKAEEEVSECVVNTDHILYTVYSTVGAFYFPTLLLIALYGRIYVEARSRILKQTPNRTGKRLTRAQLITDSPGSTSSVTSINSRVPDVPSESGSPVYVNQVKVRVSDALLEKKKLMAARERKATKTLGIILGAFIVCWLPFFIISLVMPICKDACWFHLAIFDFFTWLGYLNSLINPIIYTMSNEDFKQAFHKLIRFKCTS

[3] = target: 5-hydroxytryptamine receptor 1D (Homo sapiens, UniProt P28221); assay: Binding affinity towards 5-HT1D receptor, using [3H]5-HT as radioligand.
Sequence of 5-hydroxytryptamine receptor 1D (P28221 whole entry): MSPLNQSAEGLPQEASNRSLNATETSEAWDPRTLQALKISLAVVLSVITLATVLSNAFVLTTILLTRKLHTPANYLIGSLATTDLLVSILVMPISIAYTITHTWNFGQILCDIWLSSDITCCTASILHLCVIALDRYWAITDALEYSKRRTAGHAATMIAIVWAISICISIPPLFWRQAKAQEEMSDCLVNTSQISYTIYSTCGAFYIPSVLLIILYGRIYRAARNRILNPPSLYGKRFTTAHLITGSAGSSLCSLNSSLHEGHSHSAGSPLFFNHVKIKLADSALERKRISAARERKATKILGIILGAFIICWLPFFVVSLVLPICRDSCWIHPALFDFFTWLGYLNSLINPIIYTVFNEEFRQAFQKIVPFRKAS

[4] = target: 5-hydroxytryptamine receptor 2A (Homo sapiens, UniProt P28223); assay: Binding affinity towards 5-hydroxytryptamine 2A receptor using [3H]5-HT as radioligand.
Sequence of 5-hydroxytryptamine receptor 2A (P28223 whole entry): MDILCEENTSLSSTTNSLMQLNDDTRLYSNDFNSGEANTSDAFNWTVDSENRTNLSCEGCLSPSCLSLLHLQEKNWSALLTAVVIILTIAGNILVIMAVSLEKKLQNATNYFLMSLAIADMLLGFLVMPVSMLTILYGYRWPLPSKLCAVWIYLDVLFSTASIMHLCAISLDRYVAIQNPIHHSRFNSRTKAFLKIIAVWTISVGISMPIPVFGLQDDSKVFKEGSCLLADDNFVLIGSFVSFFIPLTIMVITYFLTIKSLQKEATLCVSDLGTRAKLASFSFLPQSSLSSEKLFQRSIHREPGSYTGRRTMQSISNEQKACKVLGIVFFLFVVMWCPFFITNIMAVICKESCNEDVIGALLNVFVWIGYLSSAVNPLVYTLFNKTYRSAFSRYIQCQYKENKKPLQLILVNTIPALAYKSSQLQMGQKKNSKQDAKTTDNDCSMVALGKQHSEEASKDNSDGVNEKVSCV

[5] = Oral bioavailability in rat; type: ADME, organism-based; settings: in vivo
[6] = Oral bioavailability in dog; type: ADME, organism-based, Canis lupus familiaris; settings: in vivo
[7] = Half-life in dog; type: ADME, organism-based, Canis lupus familiaris; settings: in vivo
[8] = Half-life in rat; type: ADME, organism-based; settings: in vivo
[9] = target: T2, Alpha-1D adrenergic receptor (Homo sapiens, UniProt P25100); assay: Binding affinity towards Alpha1D human adrenergic receptors, using [125I]HEAT as radioligand.
T2 sequence (P25100 whole entry): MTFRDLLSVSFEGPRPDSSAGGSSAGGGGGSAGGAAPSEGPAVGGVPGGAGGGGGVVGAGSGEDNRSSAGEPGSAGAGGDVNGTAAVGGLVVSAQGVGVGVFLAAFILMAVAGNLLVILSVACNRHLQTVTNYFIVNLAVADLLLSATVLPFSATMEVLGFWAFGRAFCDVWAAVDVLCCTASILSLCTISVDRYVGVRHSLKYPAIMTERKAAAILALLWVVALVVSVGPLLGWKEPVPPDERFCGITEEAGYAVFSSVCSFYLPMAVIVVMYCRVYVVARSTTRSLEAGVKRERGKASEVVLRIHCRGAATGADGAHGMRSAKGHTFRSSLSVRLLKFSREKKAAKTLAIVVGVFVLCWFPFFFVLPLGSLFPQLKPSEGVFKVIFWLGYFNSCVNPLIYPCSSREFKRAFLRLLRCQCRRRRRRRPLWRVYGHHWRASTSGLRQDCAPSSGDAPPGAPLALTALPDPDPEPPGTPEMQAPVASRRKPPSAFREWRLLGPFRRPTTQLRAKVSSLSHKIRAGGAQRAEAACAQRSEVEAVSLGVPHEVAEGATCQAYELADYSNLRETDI

[10] = target: T3, Alpha-1D adrenergic receptor (Rattus norvegicus, UniProt P23944); assay: Binding affinity towards Alpha1D rat adrenergic receptors, using [125I]HEAT as radioligand.
T3 sequence (P23944 whole entry): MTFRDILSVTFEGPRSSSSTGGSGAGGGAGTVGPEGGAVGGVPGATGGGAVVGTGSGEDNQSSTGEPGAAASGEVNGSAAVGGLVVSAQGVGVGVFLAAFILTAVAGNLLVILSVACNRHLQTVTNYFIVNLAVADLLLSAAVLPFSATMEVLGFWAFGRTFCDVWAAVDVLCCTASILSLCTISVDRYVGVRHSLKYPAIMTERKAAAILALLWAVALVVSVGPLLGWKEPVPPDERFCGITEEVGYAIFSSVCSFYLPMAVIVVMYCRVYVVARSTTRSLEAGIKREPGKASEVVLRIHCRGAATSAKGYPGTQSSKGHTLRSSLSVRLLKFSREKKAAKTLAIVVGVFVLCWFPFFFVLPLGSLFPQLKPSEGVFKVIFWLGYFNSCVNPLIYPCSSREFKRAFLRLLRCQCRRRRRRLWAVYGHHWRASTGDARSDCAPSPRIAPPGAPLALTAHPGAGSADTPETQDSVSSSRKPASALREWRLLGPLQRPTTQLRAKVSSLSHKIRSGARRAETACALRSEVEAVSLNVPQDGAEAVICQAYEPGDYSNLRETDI

[11] = target: T4, Alpha-2A adrenergic receptor (Homo sapiens, UniProt P08913); assay: Binding affinity towards human alpha-2A-adrenergic receptor, using [3H]rauwolscine as radioligand.
T4 sequence (P08913 whole entry): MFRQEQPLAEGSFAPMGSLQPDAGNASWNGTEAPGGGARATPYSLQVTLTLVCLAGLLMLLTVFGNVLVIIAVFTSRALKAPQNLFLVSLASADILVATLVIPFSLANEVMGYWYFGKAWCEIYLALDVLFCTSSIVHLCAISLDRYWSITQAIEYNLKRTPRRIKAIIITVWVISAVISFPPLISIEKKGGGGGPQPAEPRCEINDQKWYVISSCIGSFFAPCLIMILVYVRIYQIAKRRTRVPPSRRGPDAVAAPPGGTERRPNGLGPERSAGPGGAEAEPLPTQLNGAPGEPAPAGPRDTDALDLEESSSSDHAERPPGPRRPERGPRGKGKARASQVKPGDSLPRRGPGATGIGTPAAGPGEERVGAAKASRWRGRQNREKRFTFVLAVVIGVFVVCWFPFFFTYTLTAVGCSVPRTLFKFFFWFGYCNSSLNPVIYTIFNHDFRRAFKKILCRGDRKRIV

[12] = target: T5, Alpha-2B adrenergic receptor (Homo sapiens, UniProt P18089); assay: Binding affinity towards human alpha-2B-adrenergic receptor, using [3H]rauwolscine as radioligand.
T5 sequence (P18089 whole entry): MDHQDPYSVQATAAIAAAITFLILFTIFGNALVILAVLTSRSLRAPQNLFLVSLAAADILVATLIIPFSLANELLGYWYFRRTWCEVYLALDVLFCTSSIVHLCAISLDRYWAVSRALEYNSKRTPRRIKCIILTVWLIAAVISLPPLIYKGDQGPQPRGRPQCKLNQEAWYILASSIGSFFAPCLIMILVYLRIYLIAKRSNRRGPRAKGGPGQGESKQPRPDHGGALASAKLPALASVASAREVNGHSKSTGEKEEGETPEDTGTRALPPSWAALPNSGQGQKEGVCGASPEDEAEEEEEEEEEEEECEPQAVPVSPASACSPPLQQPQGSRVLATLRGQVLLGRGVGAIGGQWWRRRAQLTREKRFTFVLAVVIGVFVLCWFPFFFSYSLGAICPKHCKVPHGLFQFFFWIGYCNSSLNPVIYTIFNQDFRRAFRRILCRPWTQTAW

[13] = target: T6, Alpha-2C adrenergic receptor (Homo sapiens, UniProt P18825); assay: Binding affinity towards human alpha-2C-adrenergic receptor, using [3H]rauwolscine as radioligand.
T6 sequence (P18825 whole entry): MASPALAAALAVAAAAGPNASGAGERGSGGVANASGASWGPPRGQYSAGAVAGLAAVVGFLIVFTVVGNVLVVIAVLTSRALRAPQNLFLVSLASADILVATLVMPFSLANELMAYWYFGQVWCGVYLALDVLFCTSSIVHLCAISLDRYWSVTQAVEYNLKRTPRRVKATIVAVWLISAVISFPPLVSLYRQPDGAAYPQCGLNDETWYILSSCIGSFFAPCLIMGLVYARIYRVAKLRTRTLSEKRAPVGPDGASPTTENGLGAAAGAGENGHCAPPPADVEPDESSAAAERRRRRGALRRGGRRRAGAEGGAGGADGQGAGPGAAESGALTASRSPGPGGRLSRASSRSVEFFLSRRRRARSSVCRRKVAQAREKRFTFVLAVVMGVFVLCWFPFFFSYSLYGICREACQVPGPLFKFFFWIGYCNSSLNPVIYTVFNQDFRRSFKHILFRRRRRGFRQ

[14] = target: T7, Alpha-1B adrenergic receptor (Rattus norvegicus, UniProt P15823); assay: Binding affinity towards Alpha1B rat adrenergic receptors, using [125I]HEAT as radioligand.
T7 sequence (P15823 whole entry): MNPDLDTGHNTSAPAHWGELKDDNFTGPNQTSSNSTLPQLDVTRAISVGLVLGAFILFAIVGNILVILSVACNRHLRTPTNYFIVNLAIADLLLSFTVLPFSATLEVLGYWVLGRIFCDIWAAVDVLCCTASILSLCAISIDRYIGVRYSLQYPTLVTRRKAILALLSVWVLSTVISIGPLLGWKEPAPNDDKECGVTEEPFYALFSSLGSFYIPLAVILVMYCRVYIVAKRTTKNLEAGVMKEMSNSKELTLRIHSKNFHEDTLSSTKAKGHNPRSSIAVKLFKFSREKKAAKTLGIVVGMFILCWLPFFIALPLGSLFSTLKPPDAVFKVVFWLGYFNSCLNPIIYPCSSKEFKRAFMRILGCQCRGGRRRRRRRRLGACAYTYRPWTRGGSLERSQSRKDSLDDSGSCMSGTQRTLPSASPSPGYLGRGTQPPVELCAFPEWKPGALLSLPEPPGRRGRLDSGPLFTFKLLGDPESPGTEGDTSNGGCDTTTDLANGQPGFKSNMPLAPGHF

[15] = target: T8, Alpha-1B adrenergic receptor (Homo sapiens, UniProt P35368); assay: Binding affinity towards Alpha1B human adrenergic receptors, using [125I]HEAT as radioligand.
T8 sequence (P35368 whole entry): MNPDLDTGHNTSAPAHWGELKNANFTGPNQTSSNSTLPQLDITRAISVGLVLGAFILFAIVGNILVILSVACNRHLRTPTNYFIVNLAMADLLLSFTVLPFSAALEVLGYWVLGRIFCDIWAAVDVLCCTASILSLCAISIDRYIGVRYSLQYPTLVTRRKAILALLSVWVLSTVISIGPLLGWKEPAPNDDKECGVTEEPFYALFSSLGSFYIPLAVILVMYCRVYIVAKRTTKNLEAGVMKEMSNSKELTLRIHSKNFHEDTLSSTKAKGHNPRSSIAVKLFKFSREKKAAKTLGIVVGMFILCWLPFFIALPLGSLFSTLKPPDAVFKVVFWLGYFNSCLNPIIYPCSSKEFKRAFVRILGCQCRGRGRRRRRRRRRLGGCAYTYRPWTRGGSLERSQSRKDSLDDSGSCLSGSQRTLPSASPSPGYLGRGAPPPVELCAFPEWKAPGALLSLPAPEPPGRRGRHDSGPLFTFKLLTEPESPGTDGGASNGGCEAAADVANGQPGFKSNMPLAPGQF

Canis familiaris [16] = assay: In vivo for selective antagonistic activity against intra-urethral pressure in dog, using phenylephrine as agonist; type: functional, Canis lupus familiaris, Urethra
Canis familiaris [17] = assay: In vivo for selective antagonistic activity against diastolic blood pressure in dog, using phenylephrine as agonist; type: functional, Canis lupus familiaris, Artery
Canis familiaris [18] = species: Canis familiaris; assay: In vitro inhibition of phenylephrine induced contractions in dog prostate tissue; type: functional; settings: Canis lupus familiaris, Prostate gland
Histamine H2 receptor = Histamine H2 receptor (Homo sapiens, UniProt P25021); assay: Binding affinity towards human Histamine H2 receptor, using [3H]tiotidine as radioligand.
Sequence of Histamine H2 receptor (P25021 whole entry): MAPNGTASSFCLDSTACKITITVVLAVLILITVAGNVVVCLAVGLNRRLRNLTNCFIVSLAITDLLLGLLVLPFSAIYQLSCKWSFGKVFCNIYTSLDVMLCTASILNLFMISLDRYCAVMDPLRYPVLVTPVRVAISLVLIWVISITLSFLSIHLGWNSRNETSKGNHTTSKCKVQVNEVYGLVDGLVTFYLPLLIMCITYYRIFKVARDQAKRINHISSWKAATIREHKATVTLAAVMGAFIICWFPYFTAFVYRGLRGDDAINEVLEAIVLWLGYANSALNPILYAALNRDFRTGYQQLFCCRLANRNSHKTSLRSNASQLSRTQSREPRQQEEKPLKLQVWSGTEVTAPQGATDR

[19] = target: Voltage-gated L-type calcium channel (Rattus norvegicus, UniProt P22002+Q02485+P27732); assay: Inhibition of [3H]nitrendipine binding to rat L-type Ca-channel receptor; type: protein assay
Homo sapiens = species: Homo sapiens; assay: In vitro inhibition of A-61603 induced contractions in human prostate tissue; type: functional; settings: Prostate gland
Rattus norvegicus [20] = assay: Compound was tested in situ for the inhibition of phenylephrine-induced contractions in anesthetized rat; type: functional
Rattus norvegicus [21] = species: Rattus norvegicus; assay: In vitro inhibition of A-61603 induced contractions in rat prostate tissue; type: functional; settings: Prostate gland
Rattus norvegicus [22] = species: Rattus norvegicus; assay: In vitro inhibition of norepinephrine induced contractions in isolated rat aorta; type: functional
Histamine H1 receptor = Histamine H1 receptor (Homo sapiens, UniProt P35367); assay: Binding affinity towards Histamine H1 receptor in human brain tissue preparation, using [3H]pyrilamine as radioligand.
Sequence of Histamine H1 receptor (P35367 whole entry): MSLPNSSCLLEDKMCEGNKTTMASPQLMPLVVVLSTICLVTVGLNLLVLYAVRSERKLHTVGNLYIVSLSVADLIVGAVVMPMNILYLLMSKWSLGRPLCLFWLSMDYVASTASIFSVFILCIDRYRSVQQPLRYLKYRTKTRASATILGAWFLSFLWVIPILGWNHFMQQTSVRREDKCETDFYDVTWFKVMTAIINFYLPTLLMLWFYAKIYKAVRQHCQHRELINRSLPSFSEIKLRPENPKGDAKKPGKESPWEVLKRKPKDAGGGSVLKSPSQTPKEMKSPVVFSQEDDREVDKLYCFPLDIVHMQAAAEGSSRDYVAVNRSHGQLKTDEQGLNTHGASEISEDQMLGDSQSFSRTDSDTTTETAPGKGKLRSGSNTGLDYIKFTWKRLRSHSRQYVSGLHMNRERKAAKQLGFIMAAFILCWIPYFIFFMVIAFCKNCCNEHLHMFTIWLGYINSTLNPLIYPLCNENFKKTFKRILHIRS

Ki [1]: > 500 nM
Ki [2]: > 500 nM
Ki [3]: > 500 nM
Ki [4]: > 500 nM
bioavailability [5]: 25%
bioavailability [6]: 74%
half-life [7]: > 12 h
half-life [8]: 6 h
Ki [9]: 122 nM
Ki [10]: 62 nM
Ki [11]: > 45 nM
Ki [12]: > 45 nM
Ki [13]: > 45 nM
Ki [14]: 79 nM
Ki [15]: 119 nM
Ki (Histamine H2 receptor): > 1000 nM
Ki [19]: > 1000 nM
Ki (Histamine H1 receptor): 54 nM
Structure (SMILES): C[C@@H]1OC(=O)N(C(=O)NCCCN2CCC(c3ccc(F)cc3)CC2)[C@H]1c1ccc(F)c(F)c1
Kb (Canis familiaris [16]): 3 µg/kg
DBP15 (Canis familiaris [17]): >300 µg/kg
Kb (Canis familiaris [18]): 0.33 nM
Kb (Homo sapiens): 0.1 nM
AD50 (Rattus norvegicus [20]): 0.012 mg/kg
Kb (Rattus norvegicus [21]): 0.26 nM
Kb (Rattus norvegicus [22]): > 1000 nM

Structure (SMILES): COc1cc2nc(N3CCN(C(=O)C4CCCO4)CC3)nc(N)c2cc1OC (configuration not stated) [TERAZOSIN]
Kb (Canis familiaris [16]): 16 µg/kg
DBP15 (Canis familiaris [17]): 72 µg/kg
Kb (Canis familiaris [18]): 130 nM
Kb (Homo sapiens): 25 nM
AD50 (Rattus norvegicus [20]): 0.052 mg/kg
Kb (Rattus norvegicus [21]): 25 nM
Kb (Rattus norvegicus [22]): 19 nM
